The star is where a group is joined. YPEG 2×20 kDa = Y-shaped PEG of 2×20 kDa; Pent4ynoyl = C#CCCC(=O)*; F5 = not defined here; F6 = not defined here
What was measured:
recombinant human MMP-13 = target: T1, recombinant human MMP-13 (Homo sapiens, UniProt P45452); assay: Enzyme activation of R22, MMP-13; type: biochemical; conditions: 0.5 μM R22, 0.05 μM enzyme, room temperature, 24 hours; FIG. 13
T1 construct: purchased
Experimental: (§1) Activation by recombinant enzymes was carried out in 250 μL volumes set up in 96 well plates. MMPs were activated prior to the reaction according to manufacturers' protocols. Reactions contained 0.5 μM of R22 and 0.05 μM of activated enzyme in the appropriate activation buffer for each enzyme and incubated at room temperature for 24 hours. The plates were read at 24 hours with excitation/emission wavelength 740/770 nm. Fluorescence readings were performed using a Gemini (Molecular Devices) Fluorescence Plate Reader. Wells in which no enzyme was added were used as controls. Fold activation was obtained by dividing the enzyme-activated read-out (in relative fluorescence units) by its corresponding control well.

trypsin = assay: Enzyme activation of R22, trypsin; type: biochemical; conditions: 0.5 μM R22, 0.05 μM enzyme, room temperature, 24 hours; FIG. 13
Experimental: as §1

[1] = test system: carrageenan induced paw edema; assay: Inflammation imaging, carrageenan induced paw edema; type: in vivo, BALB/c female mice; conditions: 1% carrageenan subcutaneously, fluorescence molecular tomography; FIG. 9
Experimental: Briefly, BALB/c female mice 6-8 weeks old (Charles River Laboratory, Wilmington, Mass.) were injected subcutaneously with a 1% solution of carrageenan in PBS. After 1 minute post-injection, mice were injected the imaging agent Q91. Imaging was conducted at various time points using a Fluorescence Molecular Tomography system (VisEn Medical, Woburn Mass.).

[2] = test system: atherosclerotic plaque in ApoE -/- knockout mice; assay: Imaging of macrophage activity in atherosclerotic plaque; type: in vivo; conditions: intravenous, 6 hours post-injection
Experimental: Age-matched C57BL6 wild type female mice (Charles river Laboratories) were fed a normal diet and ApoE −/− knockout female mice (Jackson Laboratories) were fed a high cholesterol diet for 10-20 weeks. The mice were injected intravenously with compounds of formula R51 ([mPEG-20kDa-Suc]-Lys(F6)-Gly-Phe-Leu-Gly-Lys(F6)-[NH2]) (SEQ ID NO:435) and R55 ([mPEG-20kDa-Suc]-Lys(F6)-Arg-Arg-Lys(F6)-[NH2]) (SEQ ID NO:438). The mice were then imaged at 6 and 24 hours by fluorescence molecular tomography or fluorescence reflectance using an FMT2500 (VisEn Medical, Bedford, Mass.).

[3] = test system: Cathepsin B, Cathepsin K, Cathepsin L, or Cathepsin S; assay: Enzyme activation profiles of R51 to R59, cathepsins; type: biochemical; conditions: compound 0.5 uM, enzyme 0.05 uM, monitored for 24 hours; FIG. 15
Experimental: Compounds at a concentration of 0.5 uM were incubated with Cathepsin B, Cathepsin K, Cathepsin L, or Cathepsin S at a concentration of 0.05 uM. The reaction buffers used were as follows: Cathepsin K—50 mM MES, pH 5.0, 2.5 mM EDTA, 2.5 mM DTT; Cathepsin B—25 mM MES, pH 5.0, 1 mM DTT; Cathepsin S—50 mM NaOAc, pH 4.5, 5 mM DTT, 0.25M NaCl; Cathepsin L—50 mM MES, pH 6, 5 mM DTT. The activity was monitored for 24 hours with a Gemini (Molecular Devices) fluorescence plate reader at excitation 663 nm and emission 690 nm with a cut off of […].

[F6]-Gly-Pro-Leu-Gly-Val-Arg-Lys(F6)-[YPEG 2×20 kDa] (F6-GPLGVRK(F6)-{YPEG 2×20 kDa}; reading uncertain; also: printed as [F6]-Gly-Pro-Leu-Gly-Val-Arg-Lys(F6)-[YPEG 2×20 kDa]) [Agent R22]
activation by recombinant human MMP-13 (fold activation) (recombinant human MMP-13): activated primarily
activation by trypsin (fold activation) (trypsin): activated primarily

Pentynoyl-Lys(F5)-Pro-Leu-Gly-Val-Arg-Lys(F5)-PEG20kDa (Pent4ynoyl-K(F5)PLGVRK(F5)-PEG20kDa; reading uncertain; also: printed as Pentynoyl-Lys(F5)-Pro-Leu-Gly-Val-Arg-Lys(F5)-PEG20kDa) [Agent Q91]
fluorescence in carrageenan injected paw versus control paw [1]: significantly more fluorescence is observed in the mouse paw injected with carrageenan compared to the control paw

[mPEG-20kDa-Suc]-Lys(F6)-Gly-Phe-Leu-Gly-Lys(F6)-[NH2] ({mPEG‑20kDa‑Suc}-K(F6)GFLGK(F6)-NH2; reading uncertain; also: printed as [mPEG-20kDa-Suc]-Lys(F6)-Gly-Phe-Leu-Gly-Lys(F6)-[NH2]) [Agent R51]
fluorescent signal in ApoE knockout mice versus wild type controls ([2]; fluorescence molecular tomography, FIG. 17): greater fluorescent signal in the ApoE knockout mice over controls
fluorescent signal in ApoE knockout mice versus wild type controls ([2]; tomography and reflectance, FIG. 16): greater fluorescent signal in the ApoE knockout mice over controls
activation by various Cathepsin proteases compared with the other imaging agents [3]: greater than that of the other imaging agents

From patent publication US9999687B2, “Fluorescent imaging agents” (VisEn Medical, Inc., priority 2008, dated 2018)
